Tested on: AML graft
Experiment: In vivo apoptosis and cell death (propidium iodide staining)
Design: species or system NOD/SCID mice
Conditions: after 4 weeks treatment
Source text: After treatment finished, cells were harvested from both injected right femur (RF) and non-injected bone marrow (BM, including left femur, 2 tibias), and stained with human antibodies to assess the engraftment levels of AML. Antibodies used for staining included: Mouse anti-human CD45-APC, CD15-FITC, CD34-APC7, CD38-PC7 (BD Biosciences, USA), CD14-PE, CD33-PC5 (Beckman Coulter, USA), CD19-V450, CD19-AF700, CD11b-APC7, CD34-BV421 (BD Biosciences, USA), and propidium iodide (PI; Invitrogen, USA).
Following 4 weeks Compound D treatment, harvested cells were stained with propidium iodide (PI) for detecting apoptotic and dead leukemia cells. […] To determine whether GSPT1 can also be degraded by Compound D administration in vivo, leukemia cells were harvested after 3 doses of Compound D treatment for intracellular flow cytometry to assess the levels of GSPT1 in both injected RF and non-injected BM. […] It seems that Compound D degraded GSPT1 more profoundly in the injected RF than in non-injected BM. More samples had lesser GSPT1 reduction in the non-injected BM than in RF. Perhaps this reflects differences in the niche or blood supply between these sites; intrafemoral (IF) injection involves reaming out the femoral cavity prior to cell injection. […]

## O=C1CCC(N2Cc3cc(CNC(=O)C(F)(F)c4ccc(Cl)cc4)ccc3C2=O)C(=O)N1 (stereo not shown) [Compound D, 2-(4-chlorophenyl)-N-((2-(2,6-dioxopiperidin-3-yl)-1-oxoisoindolin-5-yl)methyl)-2,2-difluoroacetamide]
  number of PI+ events in mouse bone marrow: significantly increased
